≈ marks a conversion by molar mass, not a printed value. Like-named read-outs stand apart in the source and are kept apart here.
Columns and labels:
[1] = system: Nocardia asteroides; assay: In vitro antibacterial activity, agar dilution MIC (Nocardia asteroides); type: cell-based; conditions: ATCC9970, strain ATCC 9970, BHI agar, 35-37 °C, 20 to 24 hours
Protocol: (§1) The 6-O-methyl erythromycin D compound of the present invention was assayed in vitro for antibacterial activity as follows: Twelve petri dishes containing successive aqueous dilutions of the test compound mixed with 10 mL of sterilized Brain Heart Infusion (BHI) agar (Difco 0418-01-5) were prepared. Each plate was inoculated with 1:100 (or 1:10 for slow-growing strains, such as Micrococcus and Streptococcus) dilutions of up to 32 different microorganisms, using a Steers replicator block. The inoculated plates were incubated at 35°-37° C. for 20 to 24 hours. In addition, a control plate, using BHI agar containing no test compound, was prepared and incubated at the beginning and end of each test.
(§2) An additional plate containing a compound having known susceptibility patterns for the organisms being tested and belonging to the same antibiotic class as the test compound was also prepared and incubated as a further control, as well as to provide test-to-test comparability. Erythromycin A was used for this purpose.
(§3) After incubation, each disk was read. The minimum inhibitory concentration (MIC) was defined as the lowest concentration of drug yielding no growth, a slight haze, or sparsely isolated colonies on the inoculum spot as compared to the growth control.

[2] = system: Staphylococcus aureus; assay: In vitro antibacterial activity, agar dilution MIC (Staphylococcus aureus); type: cell-based; conditions: BHI agar, 35-37 °C, 20 to 24 hours
Protocol: as §1, §2, §3

[3] = system: Enterobacter aerogenes; assay: In vitro antibacterial activity, agar dilution MIC (Enterobacter aerogenes); type: cell-based; conditions: Klebsiella aerogenes, ATCC13048; strain ATCC 13048; BHI agar, 35-37 °C, 20 to 24 hours
[4] = system: Streptococcus pyogenes; assay: In vitro antibacterial activity, agar dilution MIC (Streptococcus pyogenes); type: cell-based; conditions: 35-37 °C, 20 to 24 hours
Protocol: as §1, §2, §3

[5] = system: Micrococcus luteus; assay: In vitro antibacterial activity, agar dilution MIC (Micrococcus luteus); type: cell-based
Protocol: as §1, §2, §3

[6] = system: Staphylococcus epidermidis; assay: In vitro antibacterial activity, agar dilution MIC (Staphylococcus epidermidis); type: cell-based
Protocol: as §1, §2, §3

[7] = system: Streptococcus agalactiae; assay: In vitro antibacterial activity, agar dilution MIC (Streptococcus agalactiae); type: cell-based
Protocol: as §1, §2, §3

[8] = system: Enterococcus faecium; assay: In vitro antibacterial activity, agar dilution MIC (Enterococcus faecium); type: cell-based; conditions: ATCC8043, strain ATCC 8043, BHI agar, 35-37 °C, 20 to 24 hours
[9] = system: Providencia stuartii; assay: In vitro antibacterial activity, agar dilution MIC (Providencia stuartii); type: cell-based; conditions: strain CMX 640, BHI agar, 35-37 °C, 20 to 24 hours
[10] = system: Escherichia coli; assay: In vitro antibacterial activity, agar dilution MIC (Escherichia coli); type: cell-based; conditions: 35-37 °C, 20 to 24 hours
[11] = system: Pseudomonas aeruginosa; assay: In vitro antibacterial activity, agar dilution MIC (Pseudomonas aeruginosa); type: cell-based; conditions: for MIC: Pseudomonas aeruginosa
Protocol: as §1, §2, §3

[12] = system: Mycobaceterium smegmatis; assay: In vitro antibacterial activity, agar dilution MIC (Mycobaceterium smegmatis); type: cell-based
Protocol: as §1, §2, §3

[13] = system: Streptococcus bovis; assay: In vitro antibacterial activity, agar dilution MIC (Streptococcus bovis); type: cell-based; conditions: Streptococcus equinus
Protocol: as §1, §2, §3

[14] = system: Acinetobacter calcoaceticus; assay: microbe, parasite or virus in culture
Protocol: as §1, §2, §3

[15] = system: Klebsiella pneumoniae; assay: microbe, parasite or virus in culture; conditions: ATCC8045
Protocol: as §1, §2, §3

[16] = system: microorganisms; assay: In vitro assay of antibacterial activity (overall conclusion); type: cell-based; conditions: overall conclusion from Table 1
Protocol: Erythromycin A was used for this purpose.
After incubation, each disk was read.

[17] = system: Candida albicans; assay: microbe, parasite or virus in culture
Protocol: as §1, §2, §3

[18] = Staphylococcus aureus, strain 1775 Cipro R
[19] = Staphylococcus aureus, strain A5177
[20] = Staphylococcus aureus, strain A5278
[21] = strain DC-2, BHI agar, read-out: MIC
[22] = strain Juhl, BHI agar, read-out: MIC
[23] = strain KNK 437, BHI agar, read-out: MIC
[24] = strain SS, BHI agar, read-out: MIC
[25] = strain 2862, BHI agar, 35-37 °C, 20 to 24 hours
[26] = strain 5263, BHI agar, 35-37 °C, 20 to 24 hours
[27] = strain A5007, BHI agar, 35-37 °C, 20 to 24 hours
[28] = strain K799/WT, BHI agar, 35-37 °C, 20 to 24 hours

## CC[C@H]1OC(=O)[C@H](C)[C@@H](O[C@H]2C[C@@](C)(OC)[C@@H](O)[C@H](C)O2)[C@H](C)[C@@H](O[C@@H]2O[C@H](C)C[C@H](N(C)C)[C@H]2O)[C@](C)(O)C[C@@H](C)C(=O)[C@H](C)[C@@H](O)[C@]1(C)O [Erythromycin A, reference compound]
[1]
  MIC: 0.05 µg/mL (≈ 0.0681 µM)
[2]; Staphylococcus aureus, ATCC6538P, strain ATCC 6538P
  MIC: 0.2 µg/mL (≈ 0.273 µM)
[2]; Staphylococcus aureus, NCTC10649, strain NCTC 10649
  MIC: 0.2 µg/mL (≈ 0.273 µM)
[2]; [18]
  MIC: > 100 µg/mL
[2]; [19]
  MIC: 1.56 µg/mL (≈ 2.13 µM)
[2]; [20]
  MIC: > 100 µg/mL
[2]; Staphylococcus aureus, strain CMX 553
  MIC: 0.2 µg/mL (≈ 0.273 µM)
[2]; Staphylococcus aureus, strain 642a
  MIC: 0.2 µg/mL (≈ 0.273 µM)
[3]
  MIC: 100 µg/mL (≈ 136 µM)
[4]; strain 930 const, BHI agar
  MIC: > 100 µg/mL
[4]; strain 2548 induc, BHI agar
  MIC: 6.2 µg/mL (≈ 8.45 µM)
[4]; strain EES61, BHI agar
  MIC: 0.05 µg/mL (≈ 0.0681 µM)
[5]
  MIC: 0.01 µg/mL (≈ 0.0136 µM)
[5]; ATCC9341
  MIC: 0.05 µg/mL (≈ 0.0681 µM)
[6]
  MIC: 0.2 µg/mL (≈ 0.273 µM)
[7]
  MIC: 0.05 µg/mL (≈ 0.0681 µM)
[8]
  MIC: 0.05 µg/mL (≈ 0.0681 µM)
[9]
  MIC: > 100 µg/mL
[10]; [21]
  MIC: 50 µg/mL (≈ 68.1 µM)
[10]; strain H560, BHI agar
  MIC: 2.5 µg/mL (≈ 3.41 µM)
[10]; [22]
  MIC: 50 µg/mL (≈ 68.1 µM)
[10]; [23]
  MIC: 50 µg/mL (≈ 68.1 µM)
[10]; [24]
  MIC: 0.2 µg/mL (≈ 0.273 µM)
[11]
  MIC: > 100 µg/mL
[11]; [25]
  MIC: > 100 µg/mL
[11]; [26]
  MIC: > 100 µg/mL
[11]; [27]
  MIC: > 100 µg/mL
[11]; strain K799/61, BHI agar, 35-37 °C, 20 to 24 hours
  MIC: > 100 µg/mL
[11]; [28]
  MIC: > 100 µg/mL
[12]
  MIC: 12.5 µg/mL (≈ 17 µM)
[13]
  MIC: 0.02 µg/mL (≈ 0.0273 µM)
[14]
  MIC: 12.5 µg/mL (≈ 17 µM)
[15]
  MIC: 50 µg/mL (≈ 68.1 µM)

## CC[C@H]1OC(=O)[C@H](C)[C@@H](O[C@H]2C[C@@](C)(O)[C@@H](O)[C@H](C)O2)[C@H](C)[C@@H](O[C@@H]2O[C@H](C)C[C@H](N(C)C)[C@H]2O)[C@](C)(OC)C[C@@H](C)C(=O)[C@H](C)[C@@H](O)[C@H]1C [Example 3, 6-O-Methylerythromycin D]
[1]
  MIC: 0.05 µg/mL (≈ 0.0696 µM)
[2]; Staphylococcus aureus, ATCC6538P, strain ATCC 6538P, read-out: MIC
  MIC: 0.39 µg/mL (≈ 0.543 µM)
[2]; Staphylococcus aureus, NCTC10649, strain NCTC 10649, read-out: MIC
  MIC: 0.39 µg/mL (≈ 0.543 µM)
[2]; [18]
  MIC: > 100 µg/mL
[2]; [19]
  MIC: 3.1 µg/mL (≈ 4.32 µM)
[2]; [20]
  MIC: > 100 µg/mL
[2]; Staphylococcus aureus, strain 642a, read-out: MIC
  MIC: 0.39 µg/mL (≈ 0.543 µM)
[2]; strain CMX 553
  MIC: 0.39 µg/mL (≈ 0.543 µM)
[3]
  MIC: > 100 µg/mL
[4]; strain 930 const, BHI agar
  MIC: > 100 µg/mL
[4]; strain 2548 induc, BHI agar
  MIC: 3.1 µg/mL (≈ 4.32 µM)
[4]; strain EES61, BHI agar, read-out: MIC
  MIC: 0.05 µg/mL (≈ 0.0696 µM)
[5]
  MIC: 1.56 µg/mL (≈ 2.17 µM)
[5]; ATCC9341, strain ATCC 9341, BHI agar, 35-37 °C, 20 to 24 hours, read-out: MIC
  MIC: 0.05 µg/mL (≈ 0.0696 µM)
[6]; strain 3519, BHI agar, 35-37 °C, 20 to 24 hours, read-out: MIC
  MIC: 0.39 µg/mL (≈ 0.543 µM)
[7]; strain 508, BHI agar, 35-37 °C, 20 to 24 hours, read-out: MIC
  MIC: 0.05 µg/mL (≈ 0.0696 µM)
[8]
  MIC: 0.1 µg/mL (≈ 0.139 µM)
[9]
  MIC: > 100 µg/mL
[10]; [21]
  MIC: > 100 µg/mL
[10]; strain H560, BHI agar
  MIC: > 100 µg/mL
[10]; [22]
  MIC: > 100 µg/mL
[10]; [23]
  MIC: > 100 µg/mL
[10]; [24]
  MIC: 0.39 µg/mL (≈ 0.543 µM)
[11]
  MIC: 1.56 µg/mL (≈ 2.17 µM)
[11]; Pseudomonas aeruginosa K799/61, comparison with Erythromycin A control
  antibacterial effectiveness (in words): significantly more effective
[11]; [25]
  MIC: > 100 µg/mL
[11]; [26]
  MIC: > 100 µg/mL
[11]; [27]
  MIC: > 100 µg/mL
[11]; strain BMH10, BHI agar, 35-37 °C, 20 to 24 hours
  MIC: > 100 µg/mL
[11]; [28]
  MIC: > 100 µg/mL
[12]; Mycobaceterium smegmatis ATCC 114, comparison with Erythromycin A control
  antibacterial effectiveness (in words): significantly more effective
[12]; strain ATCC 114, BHI agar, 35-37 °C, 20 to 24 hours, read-out: MIC
  MIC: 0.78 µg/mL (≈ 1.09 µM)
[16]
  antibacterial activity (in words): effective antibacterial agent
[13]; strain A5169, BHI agar, 35-37 °C, 20 to 24 hours, read-out: MIC
  MIC: 0.01 µg/mL (≈ 0.0139 µM)
[17]
  MIC: > 100 µg/mL
[14]
  MIC: > 100 µg/mL
[15]
  MIC: > 100 µg/mL

Source: patent US5756473A, “6-O-methyl erythromycin D and process for making” (Abbott Laboratories, priority 1995, dated 1998)
